{
  "source": "paper PMC6781459",
  "about": "“The study of antimicrobial, anti-cancer, anti-inflammatory and α-glucosidase inhibitory activities of Nigronapthaphenyl, isolated from an extract of Nigrospora sphaerica” (Mycology, 2019)",
  "target": "α-glucosidase",
  "assay": "α-glucosidase inhibition assay (no method or enzyme source described)",
  "format": "biochemical",
  "data": [
    {"molecule": "COc1cc(OC)c2cc(C(=O)c3ccccc3)ccc2c1OC", "note": "[Nigronapthaphenyl]", "values": [
      {"measurement": "IC50", "value": "6.9 ± 0.5", "unit": "µM"}
    ]}
  ]
}
